Values after ≈ are worked out from the molar mass of the structure shown. Like-named read-outs stand apart in the source and are kept apart here.
Tests used:
[1] = Solubility in pH 1.0, 4.5, 6.8 buffer solutions and pure water (supersaturated solution, 37° C., HPLC); type: physicochemical; settings: for solubility: ultrapure water, thermodynamic from solid, 37° C. water bath overnight, read-out: apparent solubility in pure water
Procedure: 1. The experiment process A pH 1.0 HCl solution, a pH 4.5 acetate buffer solution, a pH 6.8 phosphate buffer solution and 5 mL of ultrapure water are added into graduated test tubes having stoppers. Small amounts of the test samples (butyphthalide (NBP), DB-1 hydrochloride or DB-2 hydrochloride) are weighed and added in batches. After each batch of the adding, intense shaking is performed for 30 seconds (ultrasound is prohibited), the dissolving is observed at any time, and when the test samples are add so that turbid insoluble particles or liquid drops can be seen, finally proper amounts of the test samples are added. The system is placed into a 37° C. water bath and vibrated overnight, to form a supersaturated solution. The supersaturated solution is centrifuged or filtered (the adsorption should be noticed), and 100 μL is fed into HPLC to measure the concentrations of the tested medicines.

[2] = Assessment on the brain targeting ability (Re, Ce, DTI relative to NBP, DAS3.2.5); type: in vivo, Kunming mice; settings: mice
Procedure: (§1) 90 Kunming mice (male; 20±2 g) are randomly grouped into three groups, with 30 mice in each of the groups. The first group is the butyphthalide group, is divided into 6 subgroups (5 mice in each of the subgroups), and is administered with butyphthalide by 10 mg/kg. The secondary group is the DB-1 group, is divided into 6 subgroups (5 mice in each of the subgroups), and is administered with DB-1 of the equal moles to the butyphthalide. The third group is the DB-2 group, is divided into 6 subgroups (5 mice in each of the subgroups), and is administered with DB-2 of the equal moles to the butyphthalide. Before the experiment the mice are fasted and are free to drink water. At 5 min, 15 min, 30 min, 1 h, 2 h and 4 h, all of the groups are taken blood at the orbit and then executed, and the hearts, livers, spleens, lungs, kidneys and brains of the mice are immediately separated, washed by using normal saline, dried by using filter paper, weighed, added normal saline of a certain multiple, homogenized, placed into a −40° C. refrigerator, and refrigerated for use. The whole blood is centrifuged at 4500 r/min for 5 min, and the plasma is sucked and placed into a −40° C. refrigerator for use. The stored tissue homogenates are thawed, and 0.1 mL of each of the tissue homogenates is placed into a 0.5 mL EP tube, and added 0.2 mL of acetonitrile protein for precipitation. The precipitate is treated by vortex shocking for 5 minutes, and centrifuged at 10000 rpm for 10 min, and […] of the supernatant is fed into an LC-MS/MS system, for measuring the concentrations of the tested medicines.
The pharmacokinetic parameters are calculated by using the DAS3.2.5 software. Regarding the quantitative assessment on the brain targeting ability of the sodium salt of 2-(α-hydroxypentyl)benzoic acid (NBP), DB-1 hydrochloride and DB-2 hydrochloride, the following parameters are employed: relative uptake ratio (Rebrain), peak concentration ratio (Cebrain) and drug targeting index (DTIbrain), the calculating formulas of which are respectively: Re(brain, DB-1)=(AUCbrain)DB-1/(AUCbrain)NBP CeDB-1=(Cmax,brain)DB-1/(Cmax,brain)NBP DTIDB-1=(AUCbrain/AUCplasma)DB-1/(AUCbrain/AUCplasma)NBP Re(brain, DB-2)=(AUCbrain)DB-2/(AUCbrain)NBP CeDB-2=(Cmax,brain)DB-2/(Cmax,brain)NBP DTIDB-2=(AUCbrain/AUCplasma)DB-2/(AUCbrain/AUCplasma)NBP
The calculation results of the parameters can be seen in Table 2. Regarding DB-1, the brain relative uptake ratio Re is 3.64, the peak concentration ratio Ce is 2.93, and the drug targeting index DTI is 12.45. Regarding DB-2, the brain relative uptake ratio Re is 4.27, the peak concentration ratio Ce is 3.19, and the drug targeting index DTI is 18.08.

[3] = In-vivo tissue distribution in mice (heart, liver, spleen, lung, kidney, brain); set-up: species or system Kunming mice; settings: for contents in the brain compared with the sodium salt of 2-(α-hydroxypentyl)benzoic acid (NBP): all detection time points
Procedure: (§2) 1. Animal Grouping and Dosage Regimen
as §1

[4] = Hygroscopicity: moisture absorption/weight gaining percentage at 25° C., relative humidity 75%; type: physicochemical
Procedure: 1. The Experiment Process
Three samples of each of the sodium salt of 2-(α-hydroxypentyl)benzoic acid, DB-1 and DB-2 are precisely weighed with approximately 0.2 g for each sample, and placed into weighing bottles, and the total masses of each of the samples and its weighing bottle are weighed and recorded. Then the weighing bottles are placed in a closed environment at 25° C. and at a constant humidity with the relative humidity of 75%, their masses are weighed at 6 h, 12 h, 24 h, 48 h, 96 h and 120 h, and the moisture absorption/weight gaining percentages are calculated. The moisture absorption/weight gaining percentages are calculated by using the formula as follows: moisture absorption/weight gaining percentage (%)=(sample mass after dilution—sample mass before dilution)/sample mass before dilution*100%.

[5] = Pharmacokinetics in mice: blood concentration versus time (LC-MS/MS); type: in vivo, Kunming mice; settings: 10 mg/kg butyphthalide or equal moles; for concentration at 5 min / concentration at 1 h: male, Kunming, mouse, plasma
Procedure: as §2, §1

[6] = pH 1.0 HCl, pH 4.5 acetate, pH 6.8 phosphate buffer, pure water
[7] = 5 min after intravenous administration
[8] = 1 h after intravenous administration

Row | influence of pH on solubility [1, 6] | solubility class in words ([1]; pure water) | solubility ([1]; pure water) [mg/mL] | brain relative uptake ratio Re (AUCbrain of compound / AUCbrain of NBP) [2] | drug targeting index DTI ((AUCbrain/AUCplasma) of compound / (AUCbrain/AUCplasma) of NBP) [2] | peak concentration ratio Ce (Cmax,brain of compound / Cmax,brain of NBP) [2] | contents in the brain compared with the sodium salt of 2-(α-hydroxypentyl)benzoic acid (NBP) [3] | moisture absorption/weight gaining percentage ([4]; 6 h) [%] | moisture absorption/weight gaining percentage ([4]; 12 h) [%] | moisture absorption/weight gaining percentage ([4]; 24 h) [%] | moisture absorption/weight gaining percentage ([4]; 48 h) [%] | moisture absorption/weight gaining percentage ([4]; 96 h) [%] | moisture absorption/weight gaining percentage ([4]; 120 h) [%] | concentration at 5 min [5, 7] [µM] | concentration at 1 h [5, 8] [µM] | Structure (SMILES) | permeation of the blood-brain barrier [3] | other results
1 | – | – | – | – | – | – | – | – | – | – | – | – | – | – | – | CCCCC1OC(=O)c2ccccc21 (racemic) [Butyphthalide (NBP), dl-3-n-butylphthalide, reference compound] | – | apparent solubility in pure water [1]: 0.0734 ± 0.0123 mg/mL; influence of pH on solubility [1]: not obvious; solubility class in words [1]: insoluble medicine
2 | highest in the pH 1.0 HCl solution | soluble medicines | 20 ± 2.98 (≈ 62.3 mM) | 3.64 | 12.45 | 2.93 | significant greater | 0.42 | 0.65 | 0.88 | 0.93 | 0.97 | 1.03 | 8.68 ± 1.48 | 2.98 ± 0.534 | CCCCC(OC(C)=O)c1ccccc1C(=O)OCCN(C)C (stereo not shown) [DB-1] | can also permeate the blood-brain barrier and enter the brain | moisture absorption/weight gaining percentage ([4]; 120 h, listed as DB-1 hydrochloride): 1.03±0.07%
3 | highest in the pH 1.0 HCl solution | soluble medicines | 11.7 ± 1.89 (≈ 32.2 mM) | 4.27 | 18.08 | 3.19 | significant greater | 0.38 | 0.54 | 0.65 | 0.71 | 0.72 | 0.76 | 6.29 ± 1.2 | 1.45 ± 0.657 | CCCCC(OC(C)=O)c1ccccc1C(=O)OCCN1CCCCC1 (stereo not shown) [DB-2] | can also permeate the blood-brain barrier and enter the brain | accumulated concentration in the brain compared with DB-1 hydrochloride [3]: greater; moisture absorption/weight gaining percentage ([4]; 120 h, listed as DB-2 hydrochloride): 0.76±0.06%

Row | Structure (SMILES) | influence of pH on solubility [1, 6] | solubility class in words ([1]; pure water) | solubility ([1]; pure water) [mg/mL] | brain relative uptake ratio Re (AUCbrain of compound / AUCbrain of NBP) [2] | drug targeting index DTI ((AUCbrain/AUCplasma) of compound / (AUCbrain/AUCplasma) of NBP) [2] | peak concentration ratio Ce (Cmax,brain of compound / Cmax,brain of NBP) [2] | contents in the brain compared with the sodium salt of 2-(α-hydroxypentyl)benzoic acid (NBP) [3] | moisture absorption/weight gaining percentage ([4]; 6 h) [%] | moisture absorption/weight gaining percentage ([4]; 12 h) [%] | moisture absorption/weight gaining percentage ([4]; 24 h) [%] | moisture absorption/weight gaining percentage ([4]; 48 h) [%] | moisture absorption/weight gaining percentage ([4]; 96 h) [%] | moisture absorption/weight gaining percentage ([4]; 120 h) [%] | concentration at 5 min [5, 7] [µM] | concentration at 1 h [5, 8] [µM] | permeation of the blood-brain barrier [3] | other results
4 | CCCCC(O)c1ccccc1C(=O)[O-].[Na+] (stereo not drawn) [sodium salt of 2-(α-hydroxypentyl)benzoic acid, reference compound] | – | – | – | – | – | – | – | – | – | – | – | – | 2.49±0.25 | – | – | can permeate the blood-brain barrier and enter the brain | contents in the heart, the lung and the brain ([3]; 4 h after administration): too low to be detected; blood concentration [5, 7]: 12.243 ± 1.847 µM; blood concentration [5, 8]: 0.547 ± 0.289 µM

Source: patent US11149005B2, “Organic amine ester derivative drug of 2-(α-hydroxypentyl)benzoic acid” (YAOPHARMA CO., LTD., priority 2018, dated 2021)
